This passage reports EC50 and IC50 results from article PMC8329922, “Credentialing and Pharmacologically Targeting PTP4A3 Phosphatase as a Molecular Target for Ovarian Cancer” (Biomolecules, 2021).

Where only a bound is given, the exact number is not on record here.

One series relates to COV362-47R. Kind of series: Cytotoxicity, 3D spheroids, CellTiter Glo 3D. The note with it: Homo sapiens, 48 h exposure, carboplatin resistant line, read-out: EC50 (μM ± SEM) COV362-47R. The class given is cell-based. (In general: In ATP-based viability assays light output follows the ATP content of the culture.)
In the next series the test system is V581. In words: Cytotoxicity, 3D spheroids, CellTiter Glo 3D. The note with it: Homo sapiens, 48 h exposure, patient-derived cell line, read-out: EC50 (μM ± SEM) V581. Type of series: cell-based.
The subject of another series is OVCAR4. In words: Cytotoxicity, 3D spheroids, CellTiter Glo 3D. Type of series: cell-based. The conditions noted are these: Homo sapiens, OVCAR-4, 48 h exposure, read-out: EC50 (μM ± SEM) OVCAR4.
A further series concerns Kuramochi. Kind of series: Cytotoxicity, 3D spheroids, CellTiter Glo 3D. The class given is cell-based. The conditions noted are these: Homo sapiens, 48 h exposure, read-out: EC50 (μM ± SEM) Kuramochi.
In the next series the test system is OVSAHO. Kind of series: Cytotoxicity, 3D spheroids, CellTiter Glo 3D. Type of series: cell-based. The note with it: Homo sapiens, 48 h exposure, read-out: EC50 (μM ± SEM) OVSAHO.
The next series deals with COV362. In words: Cytotoxicity, 3D spheroids, CellTiter Glo 3D. The class given is cell-based. The conditions noted are these: Homo sapiens, 48 h exposure, read-out: EC50 (μM ± SEM) COV362.
The target in another series is T1, recombinant human PTP4A3 (Homo sapiens, UniProt O75365).
T1 construct: The cDNA for the full-length ptp4a3 was obtained from OriGene (SC308739); His6 (N); host or cells: E. coli BL21 (DE3)
Kind of series: In vitro phosphatase inhibition (DiFMUP substrate). Type of series: biochemical. The note with it: Mean ± SEM, N = 3, * N = 6, ** N = 8; DiFMUP 12 μM, 25 °C, 30 min; read-out: in vitro IC50 against recombinant human PTP4A3.

In the next series the test system is COV362 parent line. Kind of series: Viability assay with 3-(4,5-dimethylthiazol-2-yl)-2,5-diphenyltetrazolium bromide. Type of series: cell-based, human. The note with it: MTT viability assay, read-out: EC50 (concentration that caused a 50% cytotoxicity). For orientation: Tetrazolium assays rely on reduction of a dye to a coloured formazan, in cell work by metabolically active cells.

Another series deals with COV362-47R cells. The series is described as above. The class given is cell-based, human. The conditions noted are these: MTT viability assay, read-out: EC50 (concentration that caused a 50% cytotoxicity).

T1 sequence (O75365 whole entry): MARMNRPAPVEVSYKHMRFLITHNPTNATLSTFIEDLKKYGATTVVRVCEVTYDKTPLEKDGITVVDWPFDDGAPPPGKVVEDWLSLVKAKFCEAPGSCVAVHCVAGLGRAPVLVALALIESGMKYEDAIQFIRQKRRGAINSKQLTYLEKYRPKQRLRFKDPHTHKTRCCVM

As to `N=C1C(=O)NC(=O)c2c(-c3ccccc3)csc21` [EJR-912-41], the EC50 with COV362-47R is over 50 µM; in the series with V581, over 50 µM; in the series on OVCAR4, 26.9 ± 3.9 µM; in the series on Kuramochi, 7 µM; with OVSAHO, 38.7 ± 1.7 µM; with COV362, 31.6 ± 6.8 µM. Also, on recombinant human PTP4A3, the half-inhibitory concentration (IC50) came out at 0.0637 ± 0.0073 µM.

`O=C1NC(=O)c2c(-c3ccccc3)csc2C1=O` [EJR-912-43]: the EC50 in the series with COV362-47R, in the series on V581, in the series on OVCAR4, in the series with Kuramochi, with OVSAHO and in the series with COV362 was over 50 µM throughout. The concentration for half-maximal inhibition (IC50) at recombinant human PTP4A3 came to 0.0537 ± 0.0124 µM.

Consider `Cc1cc2c(s1)C(=O)C(=O)NC2=O` [EJR-912-50], for which the EC50 with COV362-47R, in the series on V581, in the series with OVCAR4, in the series on Kuramochi, in the series with OVSAHO and in the series on COV362 was over 50 µM each time. For the same compound, the IC50 at recombinant human PTP4A3 worked out at 0.0606 ± 0.006 µM.

Take `Cc1cc2c(s1)C(=N)C(=O)NC2=O` [EJR-912-57]: the EC50 in the series with COV362-47R was over 50 µM; with V581 it was over 50 µM; in the series with OVCAR4, over 25 µM; with Kuramochi, over 50 µM; in the series with OVSAHO, over 50 µM; in the series with COV362, 28.3 ± 3.1 µM. The IC50 at recombinant human PTP4A3 amounted to 0.0897 ± 0.014 µM.

With `CN1C(=O)C(=N)c2sc(-c3ccccc3)cc2C1=O` [NRT-870-59], the EC50 is over 50 µM in the series on COV362-47R; over 50 µM with V581; over 50 µM with OVCAR4; 30.6 µM in the series with Kuramochi; over 50 µM in the series with OVSAHO; over 50 µM in the series with COV362.

On to `O=C(c1cc(Cc2n[nH]c(=O)c3ccccc23)ccc1F)N1CCN(C(=O)C2CC2)CC1` [Olaparib], for which the EC50 in the series with COV362-47R, with V581, in the series with OVCAR4, in the series with Kuramochi, with OVSAHO and in the series with COV362 was over 50 µM throughout.

As to `CC(=O)O[C@H]1C(=O)[C@@]2(C)[C@H]([C@H](OC(=O)c3ccccc3)[C@]3(O)C[C@H](OC(=O)[C@H](O)[C@@H](NC(=O)c4ccccc4)c4ccccc4)C(C)=C1C3(C)C)[C@]1(OC(C)=O)CO[C@@H]1C[C@@H]2O` [Paclitaxel, reference compound], the EC50 with COV362-47R, in the series on V581, in the series with OVCAR4, in the series on Kuramochi, in the series with OVSAHO and in the series on COV362 was over 5 µM each time.

Take `CC[C@@]1(O)C(=O)OCc2c1cc1n(c2=O)Cc2cc3c(CN(C)C)c(O)ccc3nc2-1` [Topotecan, reference compound]: the EC50 was 25.3 ± 9.8 µM in the series with COV362-47R, 2.5 ± 0.8 µM in the series with OVCAR4, 2.5 ± 1.1 µM in the series with OVSAHO and 2.5 ± 0.7 µM with COV362.

Take `C[C@]1(c2nc3c(C(N)=O)cccc3[nH]2)CCCN1` [Veliparib, reference compound]: the EC50 in the series with COV362-47R, in the series on V581, in the series on OVCAR4, in the series on Kuramochi, in the series with OVSAHO and in the series on COV362 was over 50 µM in each case.

In the case of `N.N.O=C([O-])C1(C(=O)[O-])CCC1.[Pt+2]` [carboplatin], the EC50 is about 20 µM in the series with COV362 parent line and about 200 µM with COV362-47R cells.

As a reminder, the IC50 is the point on the concentration scale where inhibition reaches its midpoint.
